The record followed here is publication PMC139962 (Lipids in Health and Disease, 2002).

What is called IC50 is the concentration that gives 50% inhibition. As a reminder, the Km is the concentration of substrate that gives half-maximal velocity. One may read the Ki as a dissociation constant, usually derived from enzyme kinetics or from competition with a known ligand.

SMILES strings stand for the structures. Like-named read-outs stand apart in the source and are kept apart here.

Assay [1] deals with AEA membrane transporter (AMT). The assay is classed as biochemical, human. As to conditions: for IC50: read-out: IC50 of inhibition of [3H]AEA uptake; for inhibition of [3H]AEA uptake: 100 µM; for Ki: read-out: Ki (inhibition of AMT).
Assay [2] deals with AEA membrane transporter (AMT). The assay can be described thus: [3H]AEA uptake by human healthy brain. The following applies: for IC50: read-out: IC50 of inhibition of [3H]AEA uptake, 15 min at 37°C. The class given is biochemical.
Assay [3] relates to AEA membrane transporter (AMT). Nature of the assay: [3H]AEA uptake by mouse brain. The assay is classed as biochemical. The following applies: mouse brain synaptosomes.
In assay [4] the test system is AEA membrane transporter (AMT). The assay can be described thus: [3H]AEA uptake by rat brain. The assay is classed as biochemical. The following applies: rat brain synaptosomes.

In the case of `CCCCC/C=C\C/C=C\C/C=C\C/C=C\CCCC(=O)Nc1ccc(O)cc1C` [VDM11], the IC50 in assay [1] and in assay [2] (HB synaptosomes) was approximately 7 µM throughout. Regarding `CCCCC/C=C\C[C@@H](O)/C=C/C=C/C=C\[C@@H](O)CCCC(=O)O` [leukotriene B4], the “effect on accumulation of 200 nM [3H]AEA” value in assay [1] was “not affected”. Turning to `CCCCC/C=C\C/C=C\C/C=C\C/C=C\CCCC(=O)NCCO` [AEA, N-arachidonoylethanolamine], the “Q10 (ratio of AEA uptake at 30°C and 20°C)” value in assay [1] and in assay [2] (HB synaptosomes) was ~ 1.5 in each case. Besides, the “Vmax of AEA uptake” value in assay [1] came to 219 ± 19 pmol/min per mg protein; in assay [3], 370 ± 23 pmol/min per mg protein; in assay [2] (human healthy brain synaptosomes, 15 min, 0-1000 nM [3H]AEA, 37°C minus 4°C) it was 374 ± 38 pmol/min per mg protein; in assay [4], 357 ± 18 pmol/min per mg protein. In addition, in assay [1], the “effect on accumulation of 200 nM [3H]AEA” value is “fully inhibited”. Moreover, the Km in assay [1] (read-out: apparent Km of AEA uptake) is 793 ± 128 nM; in assay [3] (read-out: Km of AEA uptake), 660 ± 80 nM; in assay [4] (read-out: Km of AEA uptake), 483 ± 52 nM. As to `NCCO` [ethanolamine], the “effect on accumulation of 200 nM [3H]AEA” value in assay [1] is reported as “ineffective”. Consider `CCCCC/C=C\C/C=C\C/C=C\C/C=C\CCCC(=O)Nc1ccc(O)cc1` [AM404, N-(4-hydroxyphenyl)-arachidonoylamide], for which the IC50 in assay [1] and in assay [2] (HB synaptosomes) was approximately 7 µM throughout. Consider `CCCCC[C@H](O)/C=C/[C@H]1[C@H](O)CC(=O)[C@@H]1C/C=C\CCCC(=O)O` [prostaglandin E2], for which the “effect on accumulation of 200 nM [3H]AEA” value in assay [1] is recorded as “not affected”. As to `O=C(O)CI` [iodoacetic acid], the “inhibition of [3H]AEA uptake” value in assay [1] was ~ 50%. Consider `CCCCC/C=C\C/C=C\C/C=C\C/C=C\CCCC(=O)OC(CO)CO` [2-AG, 2-arachidonoylglycerol], for which the “effect on accumulation of 200 nM [3H]AEA” value in assay [1] was “inhibited almost completely”. On to `N=c1c[n+](N2CCOCC2)[n-]o1` [SIN-1, 3-morpholinosydnonimine], for which the “enhancement of [3H]AEA uptake” value in assay [1] is listed as 180–220%. With `CCN1C(=O)C=CC1=O` [N-ethylmaleimide], the “inhibition of [3H]AEA uptake” value in assay [1] is ~ 50%.

With `O=S(=O)(F)Cc1ccccc1` [PMSF, phenylmethylsulfonyl fluoride], the “inhibition of [3H]AEA uptake” value in assay [1] is recorded as ~ 50%. `NC(=O)CCC(N)C(=O)O` (stereo in doubt) [D-Glutamine]: the Ki in assay [1] turned out to be 525 ± 50 nM. On the same count and under the same terms, to `NC(=O)CC[C@H](N)C(=O)O` [L-Glutamine] belongs 1100 ± 90 nM; to `N[C@@H](CCC(=O)O)C(=O)O` [L-Glutamate], 4000 ± 370 nM. For the compound `CCCCC/C=C\C/C=C\C/C=C\C/C=C\CCCC(=O)O` [arachidonic acid], in assay [1], the “effect on accumulation of 200 nM [3H]AEA” value is listed as “ineffective”. As to `N[C@H](CCC(=O)O)C(=O)O` [D-Glutamate], in assay [1], the Ki worked out at 1230 ± 110 nM.
